# Measurements reported in patent EP3807270B1, “NOVEL HETEROARYL HETEROCYCLYL COMPOUNDS FOR THE TREATMENT OF AUTOIMMUNE DISEASE” (F. Hoffmann-La Roche AG, priority 2018, dated 2019).
# pIC50: −log10 of the molar value.
# Biological target: T1, human TLR8 (Homo sapiens, UniProt Q9NR97)
# T1 construct: host or cells: HEK293 (HEK-Blue)
# T1 sequence (Q9NR97 27-1041): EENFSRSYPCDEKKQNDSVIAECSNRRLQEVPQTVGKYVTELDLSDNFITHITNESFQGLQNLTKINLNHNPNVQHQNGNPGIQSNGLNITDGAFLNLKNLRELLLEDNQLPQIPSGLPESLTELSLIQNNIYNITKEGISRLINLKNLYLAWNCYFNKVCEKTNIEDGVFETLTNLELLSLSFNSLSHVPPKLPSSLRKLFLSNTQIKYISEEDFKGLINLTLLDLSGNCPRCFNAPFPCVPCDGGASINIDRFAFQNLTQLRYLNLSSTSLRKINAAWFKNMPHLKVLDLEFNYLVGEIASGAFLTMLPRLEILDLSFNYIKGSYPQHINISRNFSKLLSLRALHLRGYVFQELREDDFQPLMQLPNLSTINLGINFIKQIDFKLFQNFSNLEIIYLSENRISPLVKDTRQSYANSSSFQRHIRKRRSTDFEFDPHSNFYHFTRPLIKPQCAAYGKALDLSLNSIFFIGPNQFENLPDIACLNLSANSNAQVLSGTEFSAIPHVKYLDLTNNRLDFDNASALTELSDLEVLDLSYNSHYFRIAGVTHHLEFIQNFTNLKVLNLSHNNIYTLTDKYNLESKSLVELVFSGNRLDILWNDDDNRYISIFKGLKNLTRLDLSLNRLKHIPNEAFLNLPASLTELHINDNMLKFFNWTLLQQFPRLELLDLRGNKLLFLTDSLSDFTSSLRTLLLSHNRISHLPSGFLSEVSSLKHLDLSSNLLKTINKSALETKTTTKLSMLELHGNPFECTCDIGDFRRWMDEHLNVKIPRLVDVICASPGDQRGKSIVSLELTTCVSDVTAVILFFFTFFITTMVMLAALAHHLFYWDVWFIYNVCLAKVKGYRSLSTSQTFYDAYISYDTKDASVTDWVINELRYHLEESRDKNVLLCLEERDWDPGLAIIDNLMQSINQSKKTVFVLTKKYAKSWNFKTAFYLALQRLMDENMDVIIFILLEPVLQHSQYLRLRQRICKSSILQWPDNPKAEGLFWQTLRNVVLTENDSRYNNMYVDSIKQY
# Assay: HEK293-Blue-hTLR-8 cells assay (SEAP reporter, R848 stimulation)
# Type: cell-based
# Settings: HEK293-Blue-hTLR8 cells, R848, 20 hrs; read-out: HEK/hTLR8 IC50
# Description: A stable HEK293-Blue-hTLR-8 cell line was purchased from InvivoGen (Cat.#: hkb-htlr8, San Diego, California, USA). These cells were originally designed for studying the stimulation of human TLR8 by monitoring the activation of NF-κB. A SEAP (secreted embryonic alkaline phosphatase) reporter gene was placed under the control of the IFN-β minimal promoter fused to five NF-κB and AP-1-binding sites. The SEAP was induced by activating NF-κB and AP-1 via stimulating HEK-Blue hTLR8 cells with TLR8 ligands. Therefore, the reporter expression was declined by TLR8 antagonist under the stimulation of a ligand, such as R848, for incubation of 20 hrs. The cell culture supernatant SEAP reporter activity was determined using QUANTI-Blue™ kit (Cat.#: rep-qb1, Invivogen, San Diego, Ca, USA) at a wavelength of 640 nm, a detection medium that turns purple or blue in the presence of alkaline phosphatase.
# HEK293-Blue-hTLR8 cells were incubated at a density of 250,000-450,000 cells/mL in a volume of 170 µL in a 96-well plate in Dulbecco's Modified Eagle's medium (DMEM) containing 4.5 g/L glucose, 50 U/mL penicillin, […], […], 2 mM L-glutamine, 10% (v/v) heat-inactivated fetal bovine serum with addition of 20 µL test compound in a serial dilution in the presence of final DMSO at 1% and 10 µL of 60uM R848 in above DMEM, perform incubation under 37 °C in a CO2 incubator for 20 hrs. Then 20 µL of the supernatant from each well was incubated with 180 µL Quanti-blue substrate solution at 37°C for 2 hrs and the absorbance was read at 620-655 nm using a spectrophotometer. The signaling pathway that TLR8 activation leads to downstream NF-κB activation has been widely accepted, and therefore similar reporter assay was modified for evaluating TLR8 antagonist.
row,Structure (SMILES),pIC50
1,"C[C@@H]1CN(c2ccc(C#N)c3ncccc23)C[C@H](CN2CCN(c3cnc4c(c3)CCNC4)CC2)O1 [Example 23, 5-[(2R,6S)-2-methyl-6-[[4-(5,6,7,8-tetrahydro-1,7-naphthyridin-3-yl)piperazin-1-yl]methyl]morpholin-4-yl]quinoline-8-carbonitrile]",7.96
2,"C[C@@H]1CN(c2ccc(C#N)c3ncccc23)C[C@H](CN2CCN(c3cccc4c3CNC4)CC2)O1 [Example 2, 5-[(2S,6R)-2-[(4-isoindolin-4-ylpiperazin-1-yl)methyl]-6-methyl-morpholin-4-yl] quinoline-8-carbonitrile]",8.10
3,"C[C@@H]1CN(c2ccc(C#N)c3ncccc23)C[C@H](CN2CCN(c3ccc4c(c3)CNC4)[C@@H](CO)C2)O1 [Example 4, 5-[(2S,6R)-2-[[(3R)-3-(hydroxymethyl)-4-isoindolin-5-yl-piperazin-1-yl]methyl]-6-methyl-morpholin-4-yl]quinoline-8-carbonitrile]",7.57
4,"C[C@@H]1CN(c2ccc(C#N)c3ncccc23)C[C@H](CN2CCN(c3ccc4c(n3)CCNC4)CC2)O1 [Example 14, 5-[(2R,6S)-2-methyl-6-[[4-(5,6,7,8-tetrahydro-1,6-naphthyridin-2-yl)piperazin-1-yl]methyl]morpholin-4-yl]quinoline-8-carbonitrile]",8.40
5,"C[C@@H]1CN(c2ccc(C#N)c3ncccc23)C[C@H](CN2CCN(c3cnc4c(n3)CCNC4)CC2)O1 [Example 17, 5-[(2R,6S)-2-methyl-6-[[4-(5,6,7,8-tetrahydropyrido[3,4-b]pyrazin-2-yl)piperazin-1-yl]methyl]morpholin-4-yl]quinoline-8-carbonitrile]",8.40
6,"C[C@@H]1CN(c2ccc(C#N)c3ncccc23)C[C@H](CN2CCN(c3ccc4c(c3)CNC4)CC2CO)O1 (stereo partly drawn) [Example 15, 5-[(2S,6R)-2-[[2-(hydroxymethyl)-4-isoindolin-5-yl-piperazin-1-yl]methyl]-6-methyl-morpholin-4-yl]quinoline-8-carbonitrile]",7.96
7,"C[C@@H]1CN(c2ccc(C#N)n3ncc(F)c23)C[C@H](CN2CCN(c3cnc4c(c3)CNC4)CC2)O1 [Example 26, 4-[(2S,6R)-2-[[4-(6,7-dihydro-5H-pyrrolo[3,4-b]pyridin-3-yl)piperazin-1-yl]methyl]-6-methyl-morpholin-4-yl]-3-fluoro-pyrazolo[1,5-a]pyridine-7-carbonitrile]",7.31
8,"CC1NCc2cc(N3CCN(C[C@H]4CN(c5ccc(C#N)c6ncccc56)C[C@@H](C)O4)CC3)ccc21 (stereo partly drawn) [Example 28, 5-[(2R,6S)-2-methyl-6-[[4-(1-methylisoindolin-5-yl)piperazin-1-yl]methyl]morpholin-4-yl]quinoline-8-carbonitrile]",7.89
9,"C[C@@H]1CN(c2ccc(C#N)c3ncccc23)C[C@H](CN2CCN(c3cc4c(cn3)CNC4)CC2)O1 [Example 18, 5-[(2S,6R)-2-[[4-(2,3-dihydro-1H-pyrrolo[3,4-c]pyridin-6-yl)piperazin-1-yl]methyl]-6-methyl-morpholin-4-yl] quinoline-8-carbonitrile]",8.05
10,"C[C@@H]1CN(c2ccc(C#N)c3ncccc23)C[C@H](CN2CCN(c3ccc4c(n3)CCNC4)C[C@@H](O)C2)O1 (single isomer, unassigned) [Example 35B]",7.64
11,"C[C@@H]1CN(c2ccc(C#N)c3ncccc23)C[C@H](CN2CCN(c3ccc4c(n3)CCNC4)C[C@H](O)C2)O1 (single isomer, unassigned) [Example 35A]",7.62
12,"C[C@@H]1CN(c2ccc(C#N)c3ncccc23)C[C@H](CN2CCN(c3cnc4c(n3)CNCC4)CC2)O1 [Example 40, 5-[(2R,6S)-2-methyl-6-[[4-(5,6,7,8-tetrahydropyrido[3,4-b]pyrazin-3-yl)piperazin-1-yl]methyl]morpholin-4-yl]quinoline-8-carbonitrile]",8.40

# More lines, now with the values ahead:
row,pIC50,Structure (SMILES)
1,8.00,"C[C@@H]1CN(c2ccc(C#N)c3ncccc23)C[C@H](CN2CCN(c3ncnc4c3CNCC4)CC2)O1 [Example 61, 5-[(2R,6S)-2-methyl-6-[[4-(5,6,7,8-tetrahydropyrido[4,3-d]pyrimidin-4-yl)piperazin-1-yl]methyl]morpholin-4-yl]quinoline-8-carbonitrile]"
2,8.00,"C[C@@H]1CN(c2ccc(C#N)c3ncccc23)C[C@H](CN2CC3(C2)CN(c2ccc4c(n2)CNCC4)CCO3)O1 [Example 45, 5-[(2R,6S)-2-methyl-6-[[8-(5,6,7,8-tetrahydro-1,7-naphthyridin-2-yl)-5-oxa-2,8-diazaspiro[3.5]nonan-2-yl]methyl]morpholin-4-yl]quinoline-8-carbonitrile]"
3,8.70,"C[C@@H]1CN(c2ccc(C#N)c3nccnc23)C[C@H](CN2CCN(c3cc4c(cn3)[C@H](C)NCC4)CC2)O1 (single isomer, unassigned) [Example 85]"
4,8.15,"C[C@@H]1Cc2cnc(N3CCN(C[C@H]4CN(c5ccc(C#N)c6ncccc56)C[C@@H](C)O4)CC3)cc2CN1 (single isomer, unassigned) [Example 77]"
5,> 8.52,"C[C@@H]1CN(c2ccc(C#N)c3ncccc23)C[C@H](CN2CC3(C2)CN(c2cnc4c(n2)CCNC4)CCO3)O1 [Example 50, 5-[(2R,6S)-2-methyl-6-[[8-(5,6,7,8-tetrahydropyrido[3,4-b]pyrazin-2-yl)-5-oxa-2,8-diazaspiro [3.5]nonan-2-yl]methyl]morpholin-4-yl] quinoline-8-carbonitrile]"
6,8.30,"C[C@@H]1CN(c2ccc(C#N)c3ncccc23)C[C@H](CN2CC3(C2)CN(c2ncc4c(n2)CCNC4)CCO3)O1 [Example 51, 5-[(2R,6S)-2-methyl-6-[[8-(5,6,7,8-tetrahydropyrido[4,3-d]pyrimidin-2-yl)-5-oxa-2,8-diazaspiro[3.5]nonan-2-yl]methyl]morpholin-4-yl]quinoline-8-carbonitrile]"
7,7.66,"C[C@@H]1CN(c2ccc(C#N)c3ncccc23)C[C@H](CN2C[C@H]3CN(c4ccc5c(n4)CCNC5)CC[C@@H]32)O1 (single isomer, unassigned) [Example 54]"
8,7.59,"C[C@@H]1CN(c2ccc(C#N)c3ncccc23)C[C@H](CN2C[C@@H]3[C@@H](C2)OCCN3c2cnc3c(c2)CCNC3)O1 [Example 52, 5-[(2S,6R)-2-[[(4aR,7aR)-4-(5,6,7,8-tetrahydro-1,7-naphthyridin-3-yl)-2,3,4a,5,7,7a-hexahydropyrrolo[3,4-b][1,4]oxazin-6-yl]methyl]-6-methylmorpholin-4-yl]quinoline-8-carbonitrile]"
9,8.40,"C[C@@H]1Cc2cc(N3CCN(C[C@H]4CN(c5ccc(C#N)c6ncccc56)C[C@@H](C)O4)CC3)ncc2CN1 (single isomer, unassigned) [Example 70]"
10,7.85,"C[C@@H]1CN(c2ccc(C#N)c3ncccc23)C[C@H](CN2CCN(c3nccc4c3CCNC4)CC2)O1 [Example 62, 5-[(2R,6S)-2-methyl-6-[[4-(5,6,7,8-tetrahydro-2,6-naphthyridin-1-yl)piperazin-1-yl]methyl]morpholin-4-yl]quinoline-8-carbonitrile]"
11,8.30,"C[C@@H]1CN(c2ccc(C#N)c3ncccc23)C[C@H](CN2CCN(c3cc4c(cn3)[C@H](C)NCC4)CC2)O1 (single isomer, unassigned) [Example 72]"
